# Reference: patent US9050320B2, “Method for inducing lymphoid tissue and modulating intestinal homeostasis” (Institut Pasteur, priority 2009, dated 2015)
# Experiments:
# [1] = system: isolated lymphoid follicles (ILFs); assay: ILF formation in germfree mice given peptidoglycans in the drinking water; assay type: in vivo
# Description: Peptidoglycans. Peptidoglycan were purified from E. coli strain MC1061 as previously described ^32. Highly purified PGN (total of 100 mg) was digested with mutanolysin (Sigma) ^33 to generate the entire range of muropeptides present in E. coli PGN (Supplementary FIG. 3b). Soluble muropeptides were separated by reverse phase HPLC, and the N-acetylglucosamyl-β1,4-N-acetylmuramyl-L-alanyl-D-γ-glytamyl-meso-diaminopimelate-D-alanine (GMtetraDAP) was collected and purity tested by a new HPLC analysis (Supplementary FIG. 3b). The nature of the GMtetraDAP was confirmed by MALDI-TOF mass spectrometry analysis as previously described ^33. Muramyldipeptide (MDP) was purchased from Sigma. Mice received MDP or GMtetraDAP in drinking water at a fixed concentration of 1 μM from the age of 2 weeks (Experiment I) or form birth (experiment II) for different periods of time.
# Immunofluorescence histology. Intestines were opened and washed several times in PBS before fixation overnight at 4° C. in a fresh solution of 4% paraformaldehyde (Sigma) in PBS. The samples were then washed 1 day in PBS, incubated in a solution of 30% sucrose (Sigma) in PBS until the samples sank, embedded in OCT compound 4583 (Sakura Finetek), frozen in a bath of isopentane cooled with liquid nitrogen and stocked at −80° C. Frozen blocs were cut at 8 μm thickness and sections collected onto Superfrost/Plus slides (VWR). Slides were dried 1 hour and processed for staining, or stocked at −80° C. For staining, slides were first hydrated in PBS-XG, (PBS containing 0.1% triton X-100 and 1% normal bovine serum, VWR) for 5 min and blocked with 10% bovine serum in PBS-XG for 1 hour at room temperature. […] Slides were examined under an Axiolmager M1 fluorescence microscope (Zeiss) equipped with a CCD camera and images were processed with AxioVision software (Zeiss). For the quantification of CPs and ILFs, 10-20 sections were cut at regular intervals through the whole thickness of flat ileal or colonic fragments of 2 cm in length and stained. CPs and ILFs were then counted under a fluorescence microscope.
# [2] = system: isolated lymphoid follicles (ILFs); assay: ILFs in SPF mice treated from birth with antibiotics in drinking water; assay type: in vivo; conditions: antibiotic in drinking water
# Description: Antibodies, fusion proteins and antibiotics. Purified anti-CD11c (HL3) was purchased from BD Biosciences, phycoerythrin (PE)-, allophycocyanin (APC)- or biotin-conjugated anti-CD45R/B220 (RA3-6B2), and anti-CD45.2 (104) were purchased from eBiosciences, and purified anti-GFP (A-11122) and FITC-conjugated anti-rabbit polyclonal were purchased from Invitrogen. Neutralizing anti-CCL20 (114906) antibody was purchased from R&D Systems and 50-100 μg was injected i.p. in PBS twice a week. Human IgG1 and LTβR-Ig fusion protein have been previously described ^12; 100 μg protein was injected i.p. into pregnant mice 14.5 and 16.5 days after conception, or 50 μg protein was injected i.p. into newborn mice 1 day, 6 days and 12 days after birth, then 100 μg 15 days after birth. Vancomycin and colistin were purchased from Sigma and supplied to mice in the drinking water at a concentration of 500 mg/l and 1 g/l, respectively.
# Immunofluorescence histology. […] Slides were examined under an Axiolmager M1 fluorescence microscope (Zeiss) equipped with a CCD camera and images were processed with AxioVision software (Zeiss). For the quantification of CPs and ILFs, 10-20 sections were cut at regular intervals through the whole thickness of flat ileal or colonic fragments of 2 cm in length and stained. CPs and ILFs were then counted under a fluorescence microscope.
# [3] = system: isolated lymphoid follicles (ILFs); assay: ILF formation in germfree mice reconstituted with bacteria; assay type: in vivo; conditions: adult germfree mice reconstituted, 8 weeks
# Description: Bacterial strains and culture. ASF bacteria include the Gram^+Clostridium propionicum (ASF 356), Lactobacillus acidophilus (ASF 360), Lactobacillus murinus (ASF 361), Eubacterium plexicaudatum (ASF 492), Firmicutes sp. (ASF 500) and Clostridium sp. (ASF 502), the Gram^−Mucispirillum schaedleri (ASF 457) and Bacteroides distasonis (ASF 519) (Supplementary FIG. 2) ^13,34, and were obtained from Taconic. The bacteria were cultured in anaerobic conditions on Schaedler agar (Difco laboratories) supplemented with 5% sterile sheep blood (Biorad) in an anaerobic Glove chamber containing a 5% CO2, 10% H2 and 85% N2 atmosphere (Jacomex). The media were pre-reduced by placing them inside the chamber 2 days prior to inoculation of bacteria. Cultures were incubated in the chamber at 37° C. for different periods of time (1-5 days) depending on the bacterial strain. […]
# Bacterial colonization of germfree mice. […] Fecal pellets from inoculated mice were assessed for colonization by microscopic examination of smears and quantified by serial dilutions of stool spread on Schaedler agar plates or by quantitative PCR (qPCR). […] Mice were colonized to similar levels by strains MC1061 and MHD79 (˜2.5×10^9 cfu/g of feces) and analyzed 8 weeks after bacterial reconstitution. […]
# Euprymna scolopes = conditions: squid light organ; cited from earlier work
molecule,measurement,setting,value
"CC(=O)N[C@H]1[C@H](O[C@H]2[C@H](O[C@H](C)C(=O)N[C@@H](C)C(=O)N[C@H](CCC(=O)N[C@@H](CCC[C@@H](N)C(=O)O)C(=O)N[C@H](C)C(=O)O)C(=O)O)[C@@H](NC(C)=O)C(O)O[C@@H]2CO)O[C@H](CO)[C@@H](O)[C@@H]1O (stereo partly drawn) [GMtetraDAP, N-acetylglucosamyl-β1,4-N-acetylmuramyl-L-alanyl-D-γ-glytamyl-meso-diaminopimelate-D-alanine]",ILFs in sections from the ileum (histology),"[1]; 8 weeks old germ free mice, in drinking water from birth",ILFs were numerous and showed some level of follicular organization
same,ILFs in the colon,"[1]; germfree mice, 1 μM in drinking water, 10 weeks of treatment starting from birth (Experiment II)",Significant numbers of ILFs were also detected
same,induction of ILFs in the ileum,"[1]; germfree mice, 1 μM in drinking water, after 6 weeks of treatment","induced a significant number of ILFs, mostly iILFs"
"CN[C@H](CC(C)C)C(=O)N[C@H]1C(=O)N[C@@H](CC(N)=O)C(=O)N[C@H]2C(=O)N[C@H]3C(=O)N[C@H](C(=O)N[C@H](C(=O)O)c4cc(O)cc(O)c4-c4cc3ccc4O)[C@H](O)c3ccc(c(Cl)c3)Oc3cc2cc(c3O[C@@H]2O[C@H](CO)[C@@H](O)[C@H](O)[C@H]2O[C@H]2C[C@](C)(N)[C@H](O)[C@H](C)O2)Oc2ccc(cc2Cl)[C@H]1O [vancomycin, Vancomycin]",formation of ILFs,[2],"formed significant numbers of ILFs, but lower numbers than in control mice"
Lactobacillus acidophilus,induction of ileal and colonic ILFs,[3],induced no or few ILFs
colistin,formation of ILFs,[2],formed few ILFs
tracheal cytotoxin [TCT],"hemocyte infiltration of crypts, epithelial apoptosis and morphogenesis",Euprymna scolopes,recapitulated by TCT alone
